Data taken from ChEMBL document CHEMBL1201862, “PubChem BioAssay data set” (2004).
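96-well plates; 48 h exposure; 5 concentrations. Endpoints by linear interpolation between flanking doses. Not reached: highest tested concentration assigned. GI50 is the concentration that inhibits growth by half.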 The source made the active and inactive calls. No stated cut-off is given here; in the data, active = GI50 up to about 1.1 µM and inactive = higher.

Legend:
Assay in all cases: NCI tumour cell line growth inhibition, 48 h
CCRF-CEM = test system: CCRF-CEM
NCI/ADR-RES = test system: NCI/ADR-RES
MOLT-4 = test system: MOLT-4
MCF7 = test system: MCF7
HCC 2998 = test system: HCC 2998
UACC-62 = test system: UACC-62
K562 = test system: K562
DMS-273 = test system: DMS-273
KM-20L2 = test system: KM-20L2
HL-60 = test system: HL-60
Malme-3M = test system: Malme-3M
SNB-78 = test system: SNB-78
CAKI-1 = test system: CAKI-1
786-0 = test system: 786-0

Measured: GI50

C=C1C(=O)O[C@@H]2[C@H]3O[C@]3(C)CCC=C(C)CC[C@@H]12
inactive: CCRF-CEM 8.38 µM | NCI/ADR-RES 15 µM | MOLT-4 14.2 µM | MCF7 16.4 µM | HCC 2998 24.2 µM | UACC-62 16.8 µM | K562 21.8 µM | DMS-273 24.6 µM | KM-20L2 24.8 µM | HL-60 4.69 µM | Malme-3M 13.4 µM | SNB-78 18.2 µM | CAKI-1 9.31 µM

CCCn1cc2c3c(cccc31)C1C=C(C)CN(C)C1C2 (stereo not given)
inactive: CCRF-CEM 3.67 µM | NCI/ADR-RES 20.8 µM | MOLT-4 9.66 µM | MCF7 9.71 µM | HCC 2998 15.2 µM | UACC-62 23.4 µM | K562 2.56 µM | DMS-273 13.3 µM | KM-20L2 13 µM | HL-60 1.51 µM | Malme-3M 18.7 µM | SNB-78 30.3 µM | CAKI-1 11.8 µM

N=C(NNS(=O)(=O)c1ccccc1)Oc1ccc(Cl)cc1
inactive: CCRF-CEM 38.3 µM | 786-0 44.3 µM | MOLT-4 68.5 µM | HCC 2998 > 100 µM | UACC-62 59.8 µM | K562 24.8 µM | DMS-273 > 100 µM | KM-20L2 > 100 µM | HL-60 21.1 µM | Malme-3M > 100 µM | SNB-78 > 100 µM | CAKI-1 > 100 µM

CN(C)/N=N/c1ccc([N+](=O)[O-])cc1C(N)=O
inactive: CCRF-CEM > 100 µM | NCI/ADR-RES > 100 µM | MOLT-4 > 79.6 µM | MCF7 > 100 µM | HCC 2998 > 100 µM | UACC-62 > 100 µM | K562 > 100 µM | DMS-273 > 100 µM | KM-20L2 > 100 µM | Malme-3M > 100 µM | SNB-78 > 100 µM | CAKI-1 > 100 µM
